In this assay the target is T1, stearoyl-CoA desaturase (SCD) (Rattus norvegicus, UniProt P07308).
T1 construct: 0.032 mg/ml rat liver microsomes (total protein content); from tissue
T1 sequence (P07308 1-358): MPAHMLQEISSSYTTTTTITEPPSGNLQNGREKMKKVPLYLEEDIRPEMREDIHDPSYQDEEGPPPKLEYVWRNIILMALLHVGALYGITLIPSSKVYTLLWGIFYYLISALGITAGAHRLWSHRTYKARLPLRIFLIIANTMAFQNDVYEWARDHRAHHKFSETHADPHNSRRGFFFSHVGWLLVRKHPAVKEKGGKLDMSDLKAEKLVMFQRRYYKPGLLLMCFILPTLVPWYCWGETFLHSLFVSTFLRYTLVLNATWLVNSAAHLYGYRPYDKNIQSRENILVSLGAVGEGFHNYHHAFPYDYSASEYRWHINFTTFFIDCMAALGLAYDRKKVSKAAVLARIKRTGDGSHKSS
Description: Tritium release screening assay for inhibition of stearoyl-CoA desaturase activity in rat liver microsomes (96- or 384-well). It is filed as biochemical. Conditions: [3H]-stearoyl-CoA, 20 min pre-incubation, 20 min reaction. From the text: The tritium release assay for the measurement of SCD activity is thus well documented in the literature. Descriptions on how these finding have been used to produce standard screening assays in 96-well plates are also available [Brownlie, Hayden, Attie, Ntambi, Gray-Keller, & Miyazaki (2001) WO 01/62954; Wu, Gallipoli, Gallagher, & Gardell (2004) WO 2004/04776]. We have adopted the tritium release assay to a 384-well format to improve throughput even further.
Microsomal preparations were prepared from the livers of Male Sprague-Dawley rats that had been fasted and then refed a low fat/high carbohydrate diet. The preparation of microsomes was adopted from Seifried and Gaylor [Seifried & Gaylor (1976) J. Biol. Chem. 251, 7468-7473]. Confirmation of compound activity on human material was made based on microsomal preparations from HepG2 cells. All other reagents were purchased from commercial sources. The assay was run in 96 or 384-well microtiter plates by consecutive additions of a test compound solution, a microsomal preparation solution and a substrate containing solution. The final concentrations of all reagents in a total assay volume of 40 μl per well (in the 384-well plate format) were: • 0.11 μM [^3H]-stearoyl-CoA • 50 nM stearoyl-CoA • 0.032 mg/ml rat liver microsomes (total protein content) • 2 mM NADH • 220 mM sucrose • 44 mM NaH2PO4 pH adjusted to 6.8 • 130 mM KCl • 1.3 mM GSH • 0.05 mM CoA • 0.1% BSA • 0.29 mM nicotine amide • 15 mM NaF • 1.1 mM ATP • 4.9 mM MgCl2 • 0.002% Tween-20 • A test compound at various concentrations (which also adds 0.5-2% DMSO to the final solution)
The test compounds were pre-incubated for 20 minutes with the microsomal preparation prior to starting the reaction by the addition of substrate. The enzymatic reaction was allowed to proceed for 20 minutes and then optionally slowed by an addition of 40 μl of a 2% DMSO solution in water containing a known inhibitor of SCD activity. The solutions were mixed and then 70 μl of the total 80 μl were transferred to a filter plate containing predispensed activated charcoal. The plate was then centrifuged and the filtrate collected in a collector plate to which 40 μl of Optiphase Supermix was added per well. Following an 18 h equilibration time at room temperature the plate was read in a Trilux MicroBeta (two minutes counting time per well). […] The inhibitory potency or IC50 values of test compounds on SCD activity were defined by applying the same assay in the presence of sub-nM to sub-mM compound concentrations.
(In general: Microsomes from liver hold many membrane-bound enzymes, among them those of drug oxidation.)
The term IC50 denotes the concentration that inhibits the measured activity by half. `O=CNCCNC(=O)c1cnn2cc(Cc3ccc(Br)cc3)cnc12` [Example 25, 6-(4-Bromobenzyl)-N-[2-(formylamino)ethyl]pyrazolo[1,5-α]pyrimidine-3-carboxamide] displayed a half-inhibitory concentration (IC50) of 27 nM.

In turn, `Cc1nc2c(C(=O)NCCOCCO)cnn2cc1Cc1ccc(F)c(OC(F)(F)F)c1` [Example 38, 6-[4-Fluoro-3-(trifluoromethoxy)benzyl]-N-[2-(2-hydroxyethoxy)ethyl]-5-methyl-pyrazolo[1,5-α]pyrimidine-3-carboxamide] gave an IC50 of 140 nM.

`Cc1c(Cc2ccccc2)cnc2c(C(=O)NCCOCCO)cnn12` [Example 39, 6-Benzyl-N-[2-(2-hydroxyethoxy)ethyl]-7-methylpyrazolo[1,5-α]pyrimidine-3-carboxamide] registered an IC50 of 610 nM.

As to `NC(=O)COC(=O)c1cnn2cc(Cc3ccc(F)c(C(F)(F)F)c3)cnc12` [Example 48, 2-Amino-2-oxoethyl 6-[4-fluoro-3-(trifluoromethyl)benzyl]pyrazolo[1,5-α]pyrimidine-3-carboxylate], 91 nM corresponded to half-maximal inhibition (IC50).

In turn, `NC(=O)CNC(=O)c1cnn2cc(Sc3cccc(C(F)(F)F)c3)cnc12` [Example 50, N-(2-Amino-2-oxoethyl)-6-{[3-(trifluoromethyl)phenyl]thio}pyrazolo[1,5-α]-pyrimidine-3-carboxamide] had an IC50 of 480 nM.

The compound `NC(=O)CNC(=O)c1cnn2cc(Cc3cccc(Cl)c3Cl)cnc12` [Example 56, N-(2-Amino-2-oxoethyl)-6-(2,3-dichlorobenzyl)pyrazolo[1,5-α]pyrimidine-3-carboxamide] gave an IC50 of 22 nM.

Values taken from patent publication US20080255153A1, “New compounds” (BIOVITRUM AB (publ), priority 2007, published 2008).
